US10023563B2, “Cyclic compounds substituted by a condensed ring system” (BASF SE, priority 2014, dated 2018)

Tests used:
Type in all cases: in vivo
[1] = system: Green Peach Aphid (Myzus persicae); test: Green peach aphid systemic test on artificial diet; details: 72 h, adult aphids on treated artificial diet, 3 days, read-out: mortality in comparison with untreated controls
Excerpt: B.2 Green Peach Aphid (Myzus persicae)
For evaluating control of green peach aphid (Myzus persicae) through systemic means the test unit consisted of 96-well-microtiter plates containing liquid artificial diet under an artificial membrane.
The compounds were formulated using a solution containing 75% v/v water and 25% v/v DMSO. Different concentrations of formulated compounds were pipetted into the aphid diet, using a custom built pipetter, at two replications.
After application, 5-8 adult aphids were placed on the artificial membrane inside the microtiter plate wells. The aphids were then allowed to suck on the treated aphid diet and incubated at about 23±1° C. and about 50±5% relative humidity for 3 days. Aphid mortality and fecundity was then visually assessed.

[2] = system: Vetch Aphid (Megoura viciae); test: Vetch aphid broad bean leaf disk test; details: foliar, 120 h, sprayed leaf disks, adult aphids, 5 days, read-out: mortality in comparison with untreated controls
Procedure: B.3 Vetch Aphid (Megoura viciae)
For evaluating control of vetch aphid (Megoura viciae) through contact or systemic means the test unit consisted of 24-well-microtiter plates containing broad bean leaf disks.
The compounds were formulated using a solution containing 75% v/v water and 25% v/v DMSO. Different concentrations of formulated compounds were sprayed onto the leaf disks at 2.5 μl, using a custom built micro atomizer, at two replications.
After application, the leaf disks were air-dried and 5-8 adult aphids placed on the leaf disks inside the microtiter plate wells. The aphids were then allowed to suck on the treated leaf disks and incubated at about 23±1° C. and about 50±5% relative humidity for 5 days. Aphid mortality and fecundity was then visually assessed.

[3] = system: Rice Green Leafhopper (Nephotettix virescens); test: Rice green leafhopper sprayed rice seedling test; details: sprayed potted rice seedlings, adults, after 72 hours, read-out: mortality in comparison with untreated controls
Procedure: B.8 Rice Green Leafhopper (Nephotettix virescens)
Rice seedlings were cleaned and washed 24 hours before spraying. The active compounds were formulated in 1:1 acetone:water (vol:vol), and 0.01% vol/vol surfactant (Kinetic HV) was added. Potted rice seedlings were sprayed with 5-6 ml test solution, air dried, covered with Mylar cages and inoculated with 10 adults. Treated rice plants were kept at about 28-29° C. and relative humidity of about 50-60%. Percent mortality was recorded after 72 hours.

[4] = system: Tobacco Budworm (Heliothis virescens); test: Tobacco budworm insect diet microtiter test; details: 120 h, egg and larval mortality on sprayed insect diet, 5 days, read-out: mortality in comparison with untreated controls
Procedure: B.4 Tobacco Budworm (Heliothis virescens)
For evaluating control of tobacco budworm (Heliothis virescens) the test unit consisted of 96-well-microtiter plates containing an insect diet and 15-25 H. virescens eggs.
The compounds were formulated using a solution containing 75% v/v water and 25% v/v DMSO. Different concentrations of formulated compounds were sprayed onto the insect diet at 10 μl, using a custom built micro atomizer, at two replications.
(§1) After application, microtiter plates were incubated at about 28±1° C. and about 80±5% relative humidity for 5 days. Egg and larval mortality was then visually assessed.

[5] = system: Diamond Back Moth (Plutella xylostella); test: Diamond back moth leaf-dip test; details: cabbage leaves dipped, 3rd instar larvae, 72 hours after treatment, read-out: mortality in comparison with untreated controls
Procedure: B.1 Diamond Back Moth (Plutella xylostella)
The active compound was dissolved at the desired concentration in a mixture of 1:1 (vol:vol) distilled water:aceteone. Surfactant (Kinetic HV) was added at a rate of 0.01% (vol/vol). The test solution was prepared at the day of use.
Leaves of cabbage were dipped in test solution and air-dried. Treated leaves were placed in petri dishes lined with moist filter paper and inoculated with ten 3rd instar larvae. Mortality was recorded 72 hours after treatment. Feeding damages were also recorded using a scale of 0-100%.

[6] = system: Boll Weevil (Anthonomus grandis); test: Boll weevil insect diet microtiter test; details: 120 h, egg and larval mortality on sprayed insect diet, 5 days, read-out: mortality in comparison with untreated controls
Procedure: B.5 Boll Weevil (Anthonomus grandis)
For evaluating control of boll weevil (Anthonomus grandis) the test unit consisted of 96-well-microtiter plates containing an insect diet and 5-10 A. grandis eggs.
(§2) The compounds were formulated using a solution containing 75% v/v water and 25% v/v DMSO. Different concentrations of formulated compounds were sprayed onto the insect diet at 5 μl, using a custom built micro atomizer, at two replications.
After application, microtiter plates were incubated at about 25±1° C. and about 75±5% relative humidity for 5 days. Egg and larval mortality was then visually assessed.

[7] = system: Orchid Thrips (Dichromothrips Corbetti); test: Orchid thrips floral-immersion test; details: dipped orchid petals, adult thrips, 72 hours after treatment, read-out: mortality in comparison with untreated controls
Procedure: B.7 Orchid Thrips (Dichromothrips Corbetti)
Dichromothrips corbetti adults used for bioassay were obtained from a colony maintained continuously under laboratory conditions. For testing purposes, the test compound is diluted in a 1:1 mixture of acetone:water (vol:vol), plus Kinetic HV at a rate of 0.01% v/v.
Thrips potency of each compound was evaluated by using a floral-immersion technique. All petals of individual, intact orchid flowers were dipped into treatment solution and allowed to dry in Petri dishes. Treated petals were placed into individual resealable plastic along with about 20 adult thrips. All test arenas were held under continuous light and a temperature of about 28° C. for duration of the assay. After 3 days, the numbers of live thrips were counted on each petal. The percent mortality was recorded 72 hours after treatment.

[8] = system: Mediterranean Fruitfly (Ceratitis capitata); test: Mediterranean fruitfly insect diet microtiter test; details: 120 h, egg and larval mortality on sprayed insect diet, 5 days, read-out: mortality in comparison with untreated controls
Procedure: B.6 Mediterranean Fruitfly (Ceratitis capitata)
as §2, with “For evaluating control of Mediterranean fruitfly (Ceratitis capitata) the test unit consisted of microtiter plates containing an insect diet and 50-80 C. capitata eggs. The” for “The”
as §1

[9] = system: Southern Armyworm (Spodoptera eridania); test: Southern armyworm sprayed lima bean test; details: foliar, 96 h, sprayed lima bean foliage, larvae, 4 days after treatment, read-out: mortality in comparison with untreated controls
Procedure: B.10 Southern Armyworm (Spodoptera eridania)
The active compounds were formulated in cyclohexanone as a 10,000 ppm solution supplied in tubes. The tubes were inserted into an automated electrostatic sprayer equipped with an atomizing nozzle and they served as stock solutions for which lower dilutions were made in 50% acetone:50% water (v/v). A nonionic surfactant (Kinetic®) was included in the solution at a volume of 0.01% (v/v).
Lima bean plants (variety Sieva) were grown 2 plants to a pot and selected for treatment at the 1st true leaf stage. Test solutions were sprayed onto the foliage by an automated electrostatic plant sprayer equipped with an atomizing spray nozzle. The plants were dried in the sprayer fume hood and then removed from the sprayer. Each pot was placed into perforated plastic bags with a zip closure. About 10 to 11 armyworm larvae were placed into the bag and the bags zipped closed. Test plants were maintained in a growth room at about 25° C. and about 20-40% relative humidity for 4 days, avoiding direct exposure to fluorescent light (24 hour photoperiod) to prevent trapping of heat inside the bags. Mortality and reduced feeding were assessed 4 days after treatment, compared to untreated control plants.

O=C(CNC(=O)c1ccc(C2=CSC(c3cc(Cl)cc(Cl)c3)(C(F)(F)F)C2)c2c1CCC2)NCC(F)(F)F (stereo not drawn) [Compound 1-3, 7-[2-(3,5-Dichlorophenyl)-2-(trifluoromethyl)-3H-thiophen-4-yl]-N-[2-oxo-2-(2,2,2-trifluoroethylamino)ethyl]indane-4-carboxamide]
≥ 75%: mortality at 2500 ppm [1] | mortality at 2500 ppm [2] | mortality at 2500 ppm [3] | mortality at 2500 ppm [4] | mortality at 300 ppm [5] | mortality at 2500 ppm [6] | mortality at 300 ppm [7] | mortality at 2500 ppm [8] | mortality at 10 ppm [9]
